According to PubChem BioAssay AID1963833 (Molecular Pharmacology Branch, DTP, NCI, 2024):

Test system: 883617-216-R-J1-PDC complex spheroid viability
Assay: Anticancer human tumor 883617-216-R-J1-PDC patient-derived bladder carcinoma cell line growth inhibition [POLQ]
Settings: for IC50: curve of first compound; for viability, T/C: stronger effect = lower value
In short: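 Three-cell-type spheroids modelling solid tumor plus stroma served as the readout system; POL inhibitors were tested individually and in combination, concentration ranges set by clinical Cmax where known.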

[1] = second compound 0.0316 µM, first compound 0.0316 µM
[2] = second compound 0.0316 µM, first compound 0.1 µM
[3] = second compound 0.0316 µM, first compound 0.316 µM
[4] = second compound 0.0316 µM, first compound 1 µM
[5] = second compound 0.0316 µM, first compound 3.16 µM
[6] = second compound 0.0316 µM, first compound 10 µM
[7] = second compound 0.1 µM, first compound 0.0316 µM
[8] = second compound 0.1 µM, first compound 0.1 µM
[9] = second compound 0.1 µM, first compound 0.316 µM
[10] = second compound 0.1 µM, first compound 1 µM
[11] = second compound 0.1 µM, first compound 3.16 µM
[12] = second compound 0.1 µM, first compound 10 µM
[13] = second compound 0.316 µM, first compound 0.0316 µM
[14] = second compound 0.316 µM, first compound 0.1 µM
[15] = second compound 0.316 µM, first compound 0.316 µM
[16] = second compound 0.316 µM, first compound 1 µM
[17] = second compound 0.316 µM, first compound 3.16 µM
[18] = second compound 0.316 µM, first compound 10 µM
[19] = second compound 1 µM, first compound 0.0316 µM
[20] = second compound 1 µM, first compound 0.1 µM
[21] = second compound 1 µM, first compound 0.316 µM
[22] = second compound 1 µM, first compound 1 µM
[23] = second compound 1 µM, first compound 3.16 µM
[24] = second compound 1 µM, first compound 10 µM
[25] = second compound 3.16 µM, first compound 0.0316 µM
[26] = second compound 3.16 µM, first compound 0.1 µM
[27] = second compound 3.16 µM, first compound 0.316 µM
[28] = second compound 3.16 µM, first compound 1 µM
[29] = second compound 3.16 µM, first compound 3.16 µM
[30] = second compound 3.16 µM, first compound 10 µM
[31] = second compound 10 µM, first compound 0.0316 µM
[32] = second compound 10 µM, first compound 0.1 µM
[33] = second compound 10 µM, first compound 0.316 µM
[34] = second compound 10 µM, first compound 1 µM
[35] = second compound 10 µM, first compound 3.16 µM
[36] = second compound 10 µM, first compound 10 µM
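Further: spheroids exposed to compounds for seven days before readout.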
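Wherever viability, T/C is given: 100% = DMSO vehicle control viability.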

For `COc1cc(C2c3cc4c(cc3C(OC3OC5COC(C)OC5C(O)C3O)C3COC(=O)C23)OCO4)cc(OC)c1O` (stereo unspecified) + Cc1cccc(N(C)C(=O)C2C(O)CCN2c2nc(C)cc(C(F)(F)F)c2C#N)c1, the IC50 (second compound 0.0316 µM) was > 10 µM, the IC50 (second compound 0.1 µM) was 6.38 µM and the IC50 (second compound 0.316 µM) was > 10 µM. The IC50 (second compound 1 µM) was > 10 µM, the IC50 (second compound 3.16 µM) was > 10 µM and the IC50 (second compound 10 µM) was > 10 µM. For the same molecule, the viability, T/C [1] was 98.5%, the viability, T/C [2] was 95.8% and the viability, T/C [3] was 75.2%. The viability, T/C [4] was 66%, the viability, T/C [5] was 64% and the viability, T/C [6] was 54.8%. It also gave a viability, T/C [7] of 109%, a viability, T/C [8] of 97.8% and a viability, T/C [9] of 86.3%. It also gave a viability, T/C [10] of 68.1%, a viability, T/C [11] of 59.3% and a viability, T/C [12] of 44.7%. For the same molecule, the viability, T/C [13] was 96.7%, the viability, T/C [14] was 85.9% and the viability, T/C [15] was 70%. It also gave a viability, T/C [16] of 66.7%, a viability, T/C [17] of 54.4% and a viability, T/C [18] of 53.6%. For the same molecule, the viability, T/C [19] was 90%, the viability, T/C [20] was 102% and the viability, T/C [21] was 76.9%. For the same molecule, the viability, T/C [22] was 64.5%, the viability, T/C [23] was 54.9% and the viability, T/C [24] was 52.6%. For the same molecule, the viability, T/C [25] was 121%, the viability, T/C [26] was 94.5% and the viability, T/C [27] was 77.8%. The viability, T/C [28] was 61.3%, the viability, T/C [29] was 66.5% and the viability, T/C [30] was 49.6%. The viability, T/C [31] was 96.8%, the viability, T/C [32] was 104% and the viability, T/C [33] was 73%. It also gave a viability, T/C [34] of 73.2%, a viability, T/C [35] of 60% and a viability, T/C [36] of 55.5%.
For `Nc1ccn(C2OC(CO)C(O)C2(F)F)c(=O)n1` (stereo unspecified) + Cc1cccc(N(C)C(=O)C2C(O)CCN2c2nc(C)cc(C(F)(F)F)c2C#N)c1, the IC50 (second compound 0.0316 µM) was < 0.0316 µM, the IC50 (second compound 0.1 µM) was < 0.0316 µM and the IC50 (second compound 0.316 µM) was < 0.0316 µM. For the same molecule, the IC50 (second compound 1 µM) was < 0.0316 µM, the IC50 (second compound 3.16 µM) was < 0.0316 µM and the IC50 (second compound 10 µM) was < 0.0316 µM. It also gave a viability, T/C [1] of 35.8%, a viability, T/C [2] of 33.2% and a viability, T/C [3] of 41.2%. For the same molecule, the viability, T/C [4] was 41.4%, the viability, T/C [5] was 33.5% and the viability, T/C [6] was 31.1%. The viability, T/C [7] was 28%, the viability, T/C [8] was 45.6% and the viability, T/C [9] was 31.8%. For the same molecule, the viability, T/C [10] was 38.2%, the viability, T/C [11] was 36.9% and the viability, T/C [12] was 24.6%. For the same molecule, the viability, T/C [13] was 30.1%, the viability, T/C [14] was 31.9% and the viability, T/C [15] was 34%. For the same molecule, the viability, T/C [16] was 38.5%, the viability, T/C [17] was 31.6% and the viability, T/C [18] was 35.5%. It also gave a viability, T/C [19] of 32.5%, a viability, T/C [20] of 27.6% and a viability, T/C [21] of 33.8%. For the same molecule, the viability, T/C [22] was 36.5%, the viability, T/C [23] was 39.3% and the viability, T/C [24] was 34.7%. For the same molecule, the viability, T/C [25] was 35%, the viability, T/C [26] was 28.4% and the viability, T/C [27] was 41.2%. For the same molecule, the viability, T/C [28] was 39.8%, the viability, T/C [29] was 40.9% and the viability, T/C [30] was 27.4%. It also gave a viability, T/C [31] of 37.9%, a viability, T/C [32] of 35.5% and a viability, T/C [33] of 39.2%. For the same molecule, the viability, T/C [34] was 39.2%, the viability, T/C [35] was 39.1% and the viability, T/C [36] was 31.7%.
`O=c1[nH]cc(F)c(=O)[nH]1` + Cc1cccc(N(C)C(=O)C2C(O)CCN2c2nc(C)cc(C(F)(F)F)c2C#N)c1 was tested, and the IC50 (second compound 0.0316 µM) was > 10 µM, the IC50 (second compound 0.1 µM) was > 10 µM and the IC50 (second compound 0.316 µM) was > 10 µM. The IC50 (second compound 1 µM) was > 10 µM, the IC50 (second compound 3.16 µM) was > 10 µM and the IC50 (second compound 10 µM) was > 10 µM. For the same molecule, the viability, T/C [1] was 97%, the viability, T/C [2] was 104% and the viability, T/C [3] was 94.7%. For the same molecule, the viability, T/C [4] was 89.7%, the viability, T/C [5] was 79.4% and the viability, T/C [6] was 57.8%. It also gave a viability, T/C [7] of 93.3%, a viability, T/C [8] of 97.2% and a viability, T/C [9] of 89.3%. For the same molecule, the viability, T/C [10] was 102%, the viability, T/C [11] was 75.9% and the viability, T/C [12] was 62.3%. It also gave a viability, T/C [13] of 104%, a viability, T/C [14] of 107% and a viability, T/C [15] of 100%. It also gave a viability, T/C [16] of 109%, a viability, T/C [17] of 75.1% and a viability, T/C [18] of 64.8%. The viability, T/C [19] was 101%, the viability, T/C [20] was 105% and the viability, T/C [21] was 94.6%. It also gave a viability, T/C [22] of 88.2%, a viability, T/C [23] of 70.7% and a viability, T/C [24] of 66.4%. For the same molecule, the viability, T/C [25] was 101%, the viability, T/C [26] was 90.1% and the viability, T/C [27] was 104%. For the same molecule, the viability, T/C [28] was 85.6%, the viability, T/C [29] was 79.5% and the viability, T/C [30] was 65.7%. It also gave a viability, T/C [31] of 115%, a viability, T/C [32] of 102% and a viability, T/C [33] of 93.8%. It also gave a viability, T/C [34] of 89.9%, a viability, T/C [35] of 78.6% and a viability, T/C [36] of 74.6%.
